Data taken from ChEMBL document CHEMBL3232730, “Design, synthesis and bioevaluation of N-trisubstituted pyrimidine derivatives as potent aurora A kinase inhibitors” (Eur J Med Chem, 2014).

Legend:
[1] = molecular target: T1, Aurora kinase A (Homo sapiens, UniProt O14965); experiment: Inhibition of Aurora A (unknown origin) using FAM-labeled peptide as substrate preincubated for 10 mins followed by substrate addition measured after 60 mins
T1 sequence (O14965 whole entry): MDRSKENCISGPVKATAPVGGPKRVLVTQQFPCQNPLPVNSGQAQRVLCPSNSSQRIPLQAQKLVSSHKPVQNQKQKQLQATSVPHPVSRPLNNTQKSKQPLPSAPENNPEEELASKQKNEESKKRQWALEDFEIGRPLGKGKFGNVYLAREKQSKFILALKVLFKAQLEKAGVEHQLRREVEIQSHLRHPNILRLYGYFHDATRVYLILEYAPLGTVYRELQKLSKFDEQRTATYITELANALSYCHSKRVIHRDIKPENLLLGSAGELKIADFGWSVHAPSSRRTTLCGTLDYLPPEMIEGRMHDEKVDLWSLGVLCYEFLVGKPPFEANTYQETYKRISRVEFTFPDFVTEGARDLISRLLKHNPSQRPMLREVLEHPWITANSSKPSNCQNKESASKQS

[2] = test system: HeLa; experiment: Antiproliferative activity against human HeLa cells assessed as cell viability after 72 hrs by CCK8 assay; format: functional, cell-based
[3] = test system: U-937; experiment: Antiproliferative activity against human U937 cells assessed as cell viability after 72 hrs by CCK8 assay; format: functional, cell-based
[4] = test system: MDA-MB-231; experiment: Antiproliferative activity against human MDA-MB-231 cells assessed as cell viability after 72 hrs by CCK8 assay; format: functional, cell-based
[5] = test system: A-431; experiment: Antiproliferative activity against human A431 cells assessed as cell viability after 72 hrs by CCK8 assay; format: functional, cell-based
[6] = Cell cycle arrest in human CNE2 cells assessed as accumulation at S phase at 1 uM after 24 hrs by propidium iodide staining-based flow cytometric analysis (reference value: 14.7%); format: functional; details: CNE-2
[7] = Cell cycle arrest in human CNE2 cells assessed as accumulation at polyploid period at 1 uM after 24 hrs by propidium iodide staining-based flow cytometric analysis (reference value: […]); format: functional; details: CNE-2
[8] = test system: K562; experiment: Antiproliferative activity against human K562 cells assessed as cell viability after 72 hrs by CCK8 assay; format: functional, cell-based
[9] = test system: MCF7; experiment: Antiproliferative activity against human MCF7 cells assessed as cell viability after 72 hrs by CCK8 assay; format: functional, cell-based
[10] = test system: HL-60; experiment: Antiproliferative activity against human HL60 cells assessed as cell viability after 72 hrs by CCK8 assay; format: functional, cell-based
[11] = Antiproliferative activity against human SKBR3 cells assessed as cell viability after 72 hrs by CCK8 assay; format: functional, cell-based, SK-BR-3
[12] = Cell cycle arrest in human CNE2 cells assessed as accumulation at G1 phase at 1 uM after 24 hrs by propidium iodide staining-based flow cytometric analysis (reference value: 52.5%); format: functional; details: CNE-2
[13] = Antiproliferative activity against human PANC1 cells assessed as cell viability after 72 hrs by CCK8 assay; format: functional, cell-based; details: PANC-1, 72 h
[14] = test system: A549; experiment: Antiproliferative activity against human A549 cells assessed as cell viability after 72 hrs by CCK8 assay; format: functional, cell-based; details: A549, 72 h
[15] = Cell cycle arrest in human CNE2 cells assessed as accumulation at G2/M phase at 1 uM after 24 hrs by propidium iodide staining-based flow cytometric analysis (reference value: 38.2%); format: functional; details: CNE-2
[16] = test system: DU-145; experiment: Antiproliferative activity against human DU145 cells assessed as cell viability after 72 hrs by CCK8 assay; format: functional, cell-based
[17] = test system: NCI-N87; experiment: Antiproliferative activity against human NCI-N87 cells assessed as cell viability after 72 hrs by CCK8 assay; format: functional, cell-based
[18] = Antiproliferative activity against human MOLT4 cells assessed as cell viability after 72 hrs by CCK8 assay; format: functional, cell-based, MOLT-4
[19] = test system: PC-3; experiment: Antiproliferative activity against human PC3 cells assessed as cell viability after 72 hrs by CCK8 assay; format: functional, cell-based
[20] = test system: HCT-116; experiment: Antiproliferative activity against human HCT116 cells assessed as cell viability after 72 hrs by CCK8 assay; format: functional, cell-based
[21] = Homo sapiens, HeLa, 72 h, read-out: IC50
[22] = Homo sapiens, U-937, 72 h, read-out: IC50
[23] = Homo sapiens, MDA-MB-231, 72 h, read-out: IC50
[24] = Homo sapiens, A-431, 72 h, read-out: IC50
[25] = Homo sapiens, K562, 72 h, read-out: IC50
[26] = Homo sapiens, MCF7, 72 h, read-out: IC50
[27] = Homo sapiens, HL-60, 72 h, read-out: IC50
[28] = Homo sapiens, SK-BR-3, 72 h, read-out: IC50
[29] = Homo sapiens, DU-145, 72 h, read-out: IC50
[30] = Homo sapiens, NCI-N87, 72 h, read-out: IC50
[31] = Homo sapiens, MOLT-4, 72 h, read-out: IC50
[32] = Homo sapiens, PC-3, 72 h, read-out: IC50
[33] = Homo sapiens, HCT-116, 72 h, read-out: IC50

SMILES | IC50 [1] [nM] | IC50 [2, 21] [nM] | IC50 [3, 22] [nM] | IC50 [4, 23] [nM] | IC50 [5, 24] [nM] | IC50 [8, 25] [nM] | IC50 [9, 26] [nM] | IC50 [10, 27] [nM] | IC50 [11, 28] [nM] | IC50 [13] [nM] | IC50 [14] [nM] | IC50 [16, 29] [nM] | IC50 [17, 30] [nM] | IC50 [18, 31] [nM] | IC50 [19, 32] [nM] | IC50 [20, 33] [nM] | also measured
COC(=O)c1ccc(Nc2nc(Nc3cc(C)[nH]n3)cc(N3C[C@@H](C)O[C@@H](C)C3)n2)cc1 | 113 | – | – | – | – | – | – | – | – | – | – | – | – | – | – | – | –
COC(=O)c1ccc(Nc2nc(Nc3cc(C)[nH]n3)cc(N3CCOCC3)n2)cc1 | 25 | 1890 | 447 | 571 | 832 | 537 | 938 | 750 | 3180 | 1590 | 1590 | 611 | 3230 | 302 | 1090 | 1040 | Activity [6]: 7.1%; Activity [7]: 4%; Activity [12]: 52.9%; Activity [15]: 35.7%
CNC(=O)c1ccc(Nc2nc(Nc3cc(C)[nH]n3)cc(N3CCN(C)CC3)n2)cc1 | 101 | – | – | – | – | – | – | – | – | – | – | – | – | – | – | – | –
Cc1cc(Nc2cc(N3CCN(C)CC3)nc(Nc3ccc(C#N)cc3)n2)n[nH]1 | 8 | 331 | 9.03 | 75.7 | 140 | 58.1 | 372 | 21.8 | 883 | 435 | 785 | 1270 | 5780 | 13.6 | 977 | 650 | –
Cc1cc(Nc2cc(N3CCN(C)CC3)nc(Nc3ccc(C(=O)O)cc3)n2)n[nH]1 | 32 | – | – | – | – | – | – | – | – | 39300 | 19700 | – | – | – | – | – | IC50 ([2]; hela): Not Active; IC50 ([3]; u-937): Not Active; IC50 ([4]; mda-mb-231): Not Active; IC50 ([5]; a-431): Not Active; IC50 ([8]; k562): Not Active; IC50 ([9]; mcf7): Not Active; IC50 ([10]; hl-60): Not Active; IC50 ([11]; sk-br-3): Not Active; IC50 ([16]; du-145): Not Active; IC50 ([17]; nci-n87): Not Active; IC50 ([18]; molt-4): Not Active; IC50 ([19]; pc-3): Not Active; IC50 ([20]; hct-116): Not Active
Cc1cc(Nc2cc(N3CCN(C)CC3)nc(Sc3ccc(NC(=O)C4CC4)cc3)n2)n[nH]1 [TOZASERTIB] | – | 2930 | 36 | 127 | 240 | 79.1 | 1300 | 38.2 | 9990 | 4130 | 3050 | 400 | 11600 | 21.2 | 5810 | 4320 | –
Cc1cc(Nc2cc(N3CCN(C)CC3)nc(Nc3ccc([N+](=O)[O-])cc3)n2)n[nH]1 | 12 | 331 | 43.3 | 84.4 | 150 | 137 | 424 | 69.8 | 437 | 442 | 723 | 1200 | 3880 | 18.1 | 1090 | 1630 | –
COC(=O)c1ccc(Nc2nc(Nc3cc(C)[nH]n3)cc(N3CCN(S(=O)(=O)c4ccc(C)cc4)CC3)n2)cc1 | 573 | – | – | – | – | – | – | – | – | – | – | – | – | – | – | – | –
COC(=O)c1ccc(Nc2nc(Nc3cc(C)[nH]n3)cc(N3CCN(S(C)(=O)=O)CC3)n2)cc1 | 34 | 1700 | 233 | 716 | 1610 | 556 | 1990 | 604 | 5850 | 1220 | 1730 | 791 | 10900 | 215 | 2060 | 1240 | –
Cc1cc(Nc2cc(N3CCOCC3)nc(Nc3ccc([N+](=O)[O-])cc3)n2)n[nH]1 | 11 | 607 | 210 | 204 | 331 | 355 | 1070 | 1600 | 960 | 580 | 1040 | 631 | 17500 | 60.7 | 967 | 2600 | –
COC(=O)c1ccc(Nc2nc(Nc3cc(C)[nH]n3)cc(N3CCNCC3)n2)cc1 | 135 | – | – | – | – | – | – | – | – | – | – | – | – | – | – | – | –
Cc1cc(Nc2cc(N3CCN(C)CC3)nc(Nc3ccc(N4CC(=O)N(C5CC5)CC4=O)cc3)n2)n[nH]1 | 549 | – | – | – | – | – | – | – | – | – | – | – | – | – | – | – | –
Cc1cc(Nc2cc(N3CCN(C)CC3)nc(Nc3cccc([N+](=O)[O-])c3)n2)n[nH]1 | 16 | 1110 | 25.2 | 114 | 166 | 138 | 642 | 90.9 | 2180 | 457 | 926 | 1340 | 4320 | 26 | 962 | 1820 | –
CC(=O)Nc1ccc(Nc2nc(Nc3cc(C)[nH]n3)cc(N3CCN(C)CC3)n2)cc1 | 118 | – | – | – | – | – | – | – | – | – | – | – | – | – | – | – | –
COC(=O)c1ccc(Nc2nc(NCCN3CCCCC3)cc(Nc3cc(C)[nH]n3)n2)cc1 | 228 | – | – | – | – | – | – | – | – | – | – | – | – | – | – | – | –
COC(=O)c1ccc(Nc2nc(NCCN3CCOCC3)cc(Nc3cc(C)[nH]n3)n2)cc1 | 72 | – | – | – | – | – | – | – | – | – | – | – | – | – | – | – | –
Cc1cc(Nc2cc(N3CCN(C)CC3)nc(Nc3ccc(Cl)cc3)n2)n[nH]1 | 13 | 619 | 55.4 | 138 | 162 | 192 | 840 | 83.4 | 1610 | 455 | 631 | 2240 | 7470 | 53.1 | 1480 | 1370 | –
COc1ccccc1Nc1nc(Nc2cc(C)[nH]n2)cc(N2CCN(C)CC2)n1 | 200 | – | – | – | – | – | – | – | – | – | – | – | – | – | – | – | Activity [6]: 8.2%; Activity [7]: 3.7%; Activity [12]: 38.7%; Activity [15]: 49%
COC(=O)c1ccc(Nc2nc(Nc3cc(C)[nH]n3)cc(N3CCN(C)CC3)n2)cc1Cl | 7.7 | 322 | 55 | 124 | 83.3 | 137 | 813 | 129 | 2160 | 508 | 1590 | 900 | 3620 | 42.9 | 1380 | 1590 | –
Cc1cc(Nc2cc(N3CCN(C)CC3)nc(Nc3ccccc3Cl)n2)n[nH]1 | 147 | – | – | – | – | – | – | – | – | – | – | – | – | – | – | – | –
Cc1cc(Nc2cc(N3CCN(C)CC3)nc(Nc3ccc(S(N)(=O)=O)cc3)n2)n[nH]1 | 5 | 3060 | 100 | 1210 | 2760 | 1430 | 2680 | 213 | 15900 | 8760 | 16700 | 926 | 24000 | 648 | 4380 | 12200 | –
Cc1cc(Nc2cc(N3CCN(C)CC3)nc(Nc3ccc(N4CCOCC4)cc3)n2)n[nH]1 | 112 | – | – | – | – | – | – | – | – | – | – | – | – | – | – | – | –
COC(=O)c1ccc(CNc2nc(Nc3cc(C)[nH]n3)cc(N3CCN(C)CC3)n2)cc1 | 127 | – | – | – | – | – | – | – | – | – | – | – | – | – | – | – | Activity [6]: 6.2%; Activity [7]: 3%; Activity [12]: 55.4%; Activity [15]: 35.3%
COC(=O)c1ccc(CNc2nc(Nc3cc(C)[nH]n3)cc(N3CCOCC3)n2)cc1 | 97 | – | – | – | – | – | – | – | – | – | – | – | – | – | – | – | –
